Experimental data: patent US9763996B2, “Polymyxin derivative and uses thereof” (Northern Antibiotics Ltd., priority 2015, dated 2017)
Values after ≈ are worked out from the molar mass of the structure shown. Values joined by “and” are separate entries in the source; they are usually repeats but may differ in a detail not shown here. Identical values can stand only once. Like-named read-outs stand apart in the source and are kept apart here. Where a SMILES comes first, the peptide text is derived from it. Bridges are numbered along the chain shown (N, C = ends). [ ]: non-standard residue; d: D form. The star is where a group is joined. Octanoyl = CCCCCCCC(=O)*; Dab = NCC[C@H](N)C(=O)O; Abu = CC[C@H](N)C(=O)O

Assays:
[1] = Toxicokinetics (plasma and urine) in cynomolgus monkeys; settings: for AUC: plasma
Protocol: For seven days, the animals were dosed by intravenous (IV) infusion three times daily (TID) at a dose volume of 10 mL/kg for 1 hour (±10 minutes), 8±0.5 hours apart. The day of initial dose administration was designated study Day 1, with subsequent days consecutively numbered. Days prior to the initial dose administration were consecutively numbered with the final day of acclimation referenced as Day −1.
The following parameters were evaluated at designed intervals: clinical observations, body weights, clinical pathology (hematology, coagulation, serum chemistry, urinalysis including urine sediments and urine chemistry), toxicokinetics (plasma and urine) and anatomic pathology (kidney). In cases of animals sacrificed on an unscheduled basis, samples were taken on the day of the sacrifice.
Plasma and urine concentrations for toxicokinetic (TK) studies were determined by using liquid chromatograph interfaced with a mass spectrometer after precipitation of proteins. A sample (100 μL) was mixed with internal standard solution in water:formic acid (99:1 v/v; […]). Then, 600 μL of 100:1 acetonitrile:formic acid was added. The plates were centrifuged at 3200 rpm for 5 minutes. Using a Tomtec Quadra96, a 450 μL aliquot was transferred to a new 96-well plate and dried under nitrogen at 40° C. Then, 200 μL of water:methanol:formic acid (85:15:1 1 v/v) was added and the plate sealed for LC-MS/MS injection. LC-MS system consisted of Waters Acquity liquid chromatograph interfaced with a Thermo Scientific TSQ Quantitative triple quadrupole MS with ionization in the positive ion mode. Each sample (20 μL) was injected onto a Waters Acquity BEH Shield RP18 column (2.1×50 mm; 1.7 μm) equilibrated at 50° C. Mobile Phase A was 85:15:1 v/v water:methanol:formic acid. Mobile Phase B was 50:50:1 v/v acetonitrile:methanol:formic acid.
Peak area ratios from the calibration standard responses were regressed using a (1/concentration^2) linear fit for polymyxin B using colistin as the internal standard. For NAB739 and NAB815, peak areas from the calibration standard responses were regressed using a (1/concentration^2) quadratic fit (without the use of an internal standard).
The regression models were chosen based upon the behavior of the analytes across the concentration range used during development.
Toxicokinetic analysis was performed by using WinNonlin Phoenix version 6.3 software (Pharsight, Cary, N.C.). For plasma TK, noncompartmental IV infusion model was used.
In the cynomolgus monkey studies described in Example 3, where the peptides were administered as a 1-hour intravenous infusion three times daily, plasma and urine levels of the peptides were determined.

Escherichia coli C175-94 = assay: Murine urinary tract infection efficacy; format: in vivo; settings: for dose-response in the CFUs in the bladder and in the kidneys: 0.25-2 mg/kg/dose s.c. twice a day
Protocol: The study used 64 outbred, OF-1 female mice (Charles River, France) weighing 28-32 grams and Escherichia coli C175-94 (serotype O8:K48:H4), a clinical isolate elaborating type 1 fimbriae. The peptides were NAB815 (Lot 1054308) and polymyxin B (Sigma-Aldrich, batch BCBF8382V). The study was performed by Statens Serum Institut, Copenhagen, Denmark.
Three days before the start of the study and during the study, the mice had free access to 5% glucose in drinking water.
On day 0, the urine was removed from the bladder by gently pressing the abdomen. Thereafter, the mouse was anaesthetized with approximately 0.15 ml of Zoletil mix s.c. A syringe with polyethylene catheter (Becton Dickison) containing the bacterial suspension was inserted via the urethra into the bladder and 50 μl of the bacterial inoculum was slowly injected into the bladder. Thereafter, the mouse was left in the cage. Mice were kept in a warming cabinet and were under surveillance until fully awake.
After measuring the colony forming units (CFUs), the inoculum was determined to contain 9.38 log 10 CFU/ml, corresponding to 8.08 log 10 CFU/mouse.
On day 1 and day 2 postinfection, the mice were treated subcutaneously with solutions (0.2 ml) containing NAB815, polymyxin B or vehicle (0.9% NaCl) twice a day. The treatment groups (six mice in each) were the following: vehicle control; NAB815, 0.25 mg/kg/dose; NAB815, 0.5 mg/kg/dose; NAB815, 1 mg/kg/dose; NAB815, 2 mg/kg/dose; polymyxin B, 0.25 mg/kg/dose; polymyxin B, 0.5 mg/kg/dose; polymyxin B, 1 mg/kg/dose; and polymyxin B, 2 mg/kg/dose. In addition, one group served as a pretreatment control to help to assess as how the infection has proceeded before the start of the treatment on day 1 postinfection.
On days 1, 2 and 3 postinfection urine was sampled for colony counts. On day 1 postinfection (pretreatment control group) and on day 3 postinfection (all the other groups) after the urine sample was taken, mice were sacrificed by cervical dislocation and bladder and kidneys were removed aseptically. The bladder and kidneys were stored at −80° C. and later homogenized in 0.5 and 1 ml saline, respectively.
CFUs in urine were determined immediately within 2-3 hours after sampling. Frozen organs were thawed and homogenized with steel beads on a tissue lyser. All samples, urine, kidney and bladder, were 10 fold diluted in saline and 20-μl spots were applied on blood agar plates in duplicates. In addition, undiluted samples of urine (2-100 μl depending on the amount of urine) were spread on a separate agar plate to determine the lowest possible detection level of the colony counts. All agar plates were incubated 18-22 h at 35° C. in ambient air.

E. coli ATCC 25922 = settings: E. coli ATCC 25922
[2] = of all 24 mice treated at 0.25-2 mg/kg/dose
[3] = in combination with rifampin 0.25 μg/mL, A. baumannii CMI 417
[4] = in combination with rifampin 0.25 μg/mL

CCCCCCCC(=O)N[C@@H](CCN)C(=O)N[C@H](C(=O)N[C@@H](C(=O)N[C@H]1CCNC(=O)[C@H]([C@@H](C)O)NC(=O)[C@H](CCN)NC(=O)[C@H](CC)NC(=O)[C@H](CC(C)C)NC(=O)[C@@H](Cc2ccccc2)NC(=O)[C@H](CCN)NC1=O)[C@H](C)O)[C@@H](C)O [NAB815, octanoyl-αDab-Thr-DThr-[cyclo-α,γDab-αDab-DPhe-Leu-Abu-αDab-Thr]] (Octanoyl-[Dab]T[dT][Dab][Dab][dF]L[Abu][Dab]T; lactam 4-C)
AUC ([1]; cynomolgus monkey, in vivo, 36 mg/kg/day, AUCs, dosed at 36 mg/kg/d, day 1): 153 µg·h/mL
AUC ([1]; cynomolgus monkey, in vivo, iv, 8 mg/kg, AUCs 0-8 h, after infusion of 8 mg/kg, day 1): 102 µg·h/mL
AUC ([1]; cynomolgus monkey, in vivo, iv, 8 mg/kg, AUCs 0-8 h, after infusion of 8 mg/kg, day 7): 110 µg·h/mL
AUC ([1]; cynomolgus monkey, in vivo, iv, 36 mg/kg/day, AUCs, dosed at 36 mg/kg/d, day 7): 205 µg·h/mL
dose excreted ([1]; female, cynomolgus monkey, in vivo, iv, 36 mg/kg/d, urinary recoveries (0-8 h urine collection), 36 mg/kg/d, day 7, each animal): 33.9%
CFU levels in urine, day 3 vs pretreatment control day 1 (Escherichia coli C175-94; 0.25 mg/kg/dose s.c. twice a day, OF-1 female mice): no significant differences
CFU levels in urine, day 3 vs pretreatment control day 1 (Escherichia coli C175-94; 0.5 mg/kg/dose s.c. twice a day, OF-1 female mice): no significant differences
CFU levels in urine, day 3 vs pretreatment control day 1 (Escherichia coli C175-94; 1 mg/kg/dose s.c. twice a day, OF-1 female mice, ** p<0.01): significant reduction of CFU levels in urine
CFU levels in urine, day 3 vs pretreatment control day 1 (Escherichia coli C175-94; 2 mg/kg/dose s.c. twice a day, OF-1 female mice, * p<0.05): significant reduction of CFU levels in urine
dose-response in the CFUs in the bladder and in the kidneys (Escherichia coli C175-94): showed a tendency of a dose-response
number of mice with bacterial levels below the detection limit in the kidneys (Escherichia coli C175-94; [2]): 20 mice
number of mice with bacterial levels below the detection limit in the urine (Escherichia coli C175-94; [2]): 8 mice
MIC (A. baumannii CMI 417; [3]): 2 µg/mL
MIC (E. coli ATCC 25922; alone): 2 µg/mL (≈ 1.7 µM)
MIC (E. coli ATCC 25922; [4]): 1 µg/mL
MIC of rifampin in the presence of the peptide (E. coli ATCC 25922; peptide at 1 μg/mL): 0.25 µg/mL
factor of decrease of the MIC of rifampin (E. coli ATCC 25922; peptide at 1 μg/mL): 32

Polymyxin B
0-8 h recovery in urine (of the dose) ([1]; after infusion of 8 mg/kg, given for each animal, 8 mg/kg): 1% and 2% (2×)
dose-response in the CFUs in the bladder and in the kidneys (Escherichia coli C175-94): did not show any dose-response tendency
CFU levels in urine, day 3 vs pretreatment control day 1 (Escherichia coli C175-94; any dose group (0.25, 0.5, 1, 2 mg/kg/dose) s.c. twice a day): no significant differences
number of mice with bacterial levels below the detection limit in the urine (Escherichia coli C175-94; [2]): 1 mice
MIC (A. baumannii CMI 417; alone, A. baumannii CMI 417 (polymyxin-nonsusceptible)): 32 µg/mL
MIC (A. baumannii CMI 417; [3]): 1 µg/mL
MIC (E. coli ATCC 25922; alone): 2 µg/mL
MIC (E. coli ATCC 25922; [4]): 0.5 to 1 µg/mL
